Source: patent publication US8663607B2, “Ferrate(VI)-containing compositions and methods of using ferrate(VI)” (Battelle Memorial Institute, priority 2007, dated 2014)

What was measured:
[1] = at 71° C.; pure (80-100%) or moderate purity (50-80%)
Protocol: The more demanding isothermal test conditions were chosen for the preliminary viability assessment testing. In this series of tests, a Blue M Electric Oven, Model OV-490A-3 (S/N OV-11311, BMI No. N-00154, 120V Single Phase, 38-260° C.), was used. The oven was set to maintain an air temperature of approximately 71.5° C. A mercury thermometer immersed in silicone oil was added to the oven for manual tracking of the temperature, and a HOBO model H08-002-02 external temperature logger (Onset Computer Corp., S/N 5948-9820) was used for automated temperature data acquisition. Four ˜1.0 g samples of K2FeO4 TG were transferred to clean 12 mL glass vials with Teflon-lined caps; these samples with purity from ˜75-93% were chosen specifically to represent a variety of initial purity values. Before closure, the headspace of each vial briefly was purged (˜20 sec at ˜250 cm^3 (STP)) with ultra-high purity (UHP) argon gas to minimize trapped moisture.
The samples were removed from the oven at 1, 2, 5, 7, 12, 27, 48, and 98 days. The purity of each sample was determined by the technique described in Section 3.2.1. Each vial was assayed three times at each sampling point in order to calculate standard deviation and provide an estimate of precision. When returning the vials to the isothermal oven, the headspace of each vial was purged briefly with UHP argon, as before.

[2] = Stain removal from HAP disk, coffee stain; details: disk A-6: coffee stained disk treated the same way as P and Q (pH 8 SDS/HEPA buffer)
Source text: (§1) Oxidation resistant chelating buffer: 0.25M 1-Hydroxyethylidenediphosphonic acid (etridonic acid) (Dequest® 2010, Thermphos) (HEPA) was pH adjusted by microtitration with 10N NaOH. 1.28 g of 1-Hydroxyethylidenediphosphonic acid was to a 25-mL volumetric flask and brought to volume with HPDI water. The solution was transferred to a 50-mL beaker with a stir bar and pH adjusted using 10.04N NaOH, monitored with a calibrated pH meter. Aliquat 336® (Cognis) (also suitable is Aliquat 134®) (N-methyl-tri-(n-octyl)ammonium chloride), (N-methyl TOA) or “HEPA” chelating pH Buffer: 2.5-μL of N-methyl TOA was added to 5 mL of pH 7 HEPA buffer and sonicated for 1 minute. pH 7 Sodium Dodecyl Sulfate (SDS)/HEPA Buffer: 10 mg of SDS was added to 5 mL of pH 7 HEPA buffer and sonicated for 1 minute. pH 8 SDS/HEPA Buffer: 10 mg of SDS was added to 5 mL of pH 8 HEPA buffer and sonicated for 1 minute.
(§2) • A. A tea stained disk was placed into the bowl of the bowl of a watch glass and 100 μL of pH 7 HEPA buffer was pipetted onto the disk surface. 3.7 mg of potassium ferrate(VI) was added to the disk surface and mixed gently. […] The disk was rinsed at 10 minutes with HPDI water. […] 1 mL of pH 7 HEPA buffer was added followed by 9 mL of HPDI water. 9.7 mg of potassium ferrate(VI) was added. The tube was gently hand shaken for 10 minutes. The disk was removed and rinsed with HPDI water. […] 10 mg of potassium ferrate(VI) was added to 1 mL of pH 7 HEPA buffer in a 50 mL centrifuge tube. 9 mL HPDI water was added, and the solution was shaken for a few seconds followed by the addition of a tea stained HAP disk. The disk was removed at 10 minutes and rinsed with HPDI water. […] 1.3 mg of potassium ferrate(VI) added and mixed into the solution. […] 1.4 mg of potassium ferrate(VI) was added to the disk surface and mixed gently. […] The reaction was allowed to continue for 5 minutes. […] The disk was rinsed several times with HPDI water. 100 μL of pH 7 HEPA buffer was pipetted onto the disk surface and allowed to react for 5 minutes. […] 1 mg of potassium ferrate(VI) was added and mixed into the liquid.

[3] = Treatment of unstained HAP disk (staining by the reagent itself); details: disk D: unstained disk, 100 μL pH 7 HEPA buffer, 1.3 mg
Protocol: Tea staining Procedure: A calcium-deficient hydroxyapatite (HAP) disk (Clarkson Chromatography Products) was placed into a 50-mL centrifuge tube with 10 mL of tea solution. The centrifuge tube was gently shaken by hand for 15 minutes. The tea solution was decanted and replaced with 10 mL of HPDI water and vortexed for 30 seconds. The water was decanted and replaced with 10 additional mL of HPDI water and vortexed for 30 seconds. The disk was removed with forceps and patted dry with a tissue. The disk was allowed to air dry at room temperature for at least one hour.
as §1
• A. A tea stained disk was placed into the bowl of the bowl of a watch glass and 100 μL of pH 7 HEPA buffer was pipetted onto the disk surface. 3.7 mg of potassium ferrate(VI) was added to the disk surface and mixed gently. […] The disk was rinsed at 10 minutes with HPDI water. […] 1 mL of pH 7 HEPA buffer was added followed by 9 mL of HPDI water. 9.7 mg of potassium ferrate(VI) was added. The tube was gently hand shaken for 10 minutes. The disk was removed and rinsed with HPDI water. […] 10 mg of potassium ferrate(VI) was added to 1 mL of pH 7 HEPA buffer in a 50 mL centrifuge tube. 9 mL HPDI water was added, and the solution was shaken for a few seconds followed by the addition of a tea stained HAP disk. The disk was removed at 10 minutes and rinsed with HPDI water. […] 1.3 mg of potassium ferrate(VI) added and mixed into the solution. […] 1.4 mg of potassium ferrate(VI) was added to the disk surface and mixed gently. […] The reaction was allowed to continue for 5 minutes. […] The disk was rinsed several times with HPDI water. 100 μL of pH 7 HEPA buffer was pipetted onto the disk surface and allowed to react for 5 minutes.

[4] = Stain removal from HAP disk, Cran-Grape juice stain; details: disk A-5: Cran-Grape juice stain treated the same way as P and Q (pH 8 SDS/HEPA buffer)
Source text: as §1, §2

For potassium ferrate(VI), the stable to storage [1] was “at least 98 days”, the “L* (lightness/darkness)” value [2] was 101.9 and the “a* (blue/red)” value [2] was −2.1. The “appearance of disk after treatment” value [2] was “All stains were removed”, the “b* (yellow/green)” value [2] was −2.8 and the “reflectance of visible light at 450 nm” value [2] was 106.774. The “reflectance of visible light at 750 nm” value [2] was 99.233, the “ΔE (coffee stain)” value [2] was 13.57 and the “L* (lightness/darkness)” value [3] was 103.4. For the same substance, the “a* (blue/red)” value [3] was −2.2, the “appearance of disk after treatment” value [3] was “very slight yellow tint” and the “b* (yellow/green)” value [3] was 0.5. The “reflectance of visible light at 450 nm” value [3] was 105.246, the “reflectance of visible light at 750 nm” value [3] was 102.793 and the “ΔE (versus tea stain)” value [3] was 20.34. For the same substance, the “L* (lightness/darkness)” value [4] was 107.3, the “a* (blue/red)” value [4] was −3.2 and the “appearance of disk after treatment” value [4] was “All stains were removed”. The “b* (yellow/green)” value [4] was −5.5, the “reflectance of visible light at 450 nm” value [4] was 126.369 and the “reflectance of visible light at 750 nm” value [4] was 108.805. For the same substance, the “ΔE (cran-grape juice stain)” value [4] was 6.82.
